Laboratory results published in patent US20240336594A1, “SIX-MEMBERED ARYL OR HETEROARYL AMIDES, AND COMPOSITION AND USE THEREOF” (BETTA PHARMACEUTICALS CO., LTD, priority 2021, published 2024).

Legend:
MALT1 = target: T1, MALT1 (Homo sapiens, UniProt Q9UDY8); assay: MALT1 protease inhibition assay (AMC-labeled peptide, fluorescence 360/460); type: biochemical; settings: substrate Ac-LRSR-AMC, 15 min preincubation, 90 min at 25° C.
T1 sequence (Q9UDY8 1-824): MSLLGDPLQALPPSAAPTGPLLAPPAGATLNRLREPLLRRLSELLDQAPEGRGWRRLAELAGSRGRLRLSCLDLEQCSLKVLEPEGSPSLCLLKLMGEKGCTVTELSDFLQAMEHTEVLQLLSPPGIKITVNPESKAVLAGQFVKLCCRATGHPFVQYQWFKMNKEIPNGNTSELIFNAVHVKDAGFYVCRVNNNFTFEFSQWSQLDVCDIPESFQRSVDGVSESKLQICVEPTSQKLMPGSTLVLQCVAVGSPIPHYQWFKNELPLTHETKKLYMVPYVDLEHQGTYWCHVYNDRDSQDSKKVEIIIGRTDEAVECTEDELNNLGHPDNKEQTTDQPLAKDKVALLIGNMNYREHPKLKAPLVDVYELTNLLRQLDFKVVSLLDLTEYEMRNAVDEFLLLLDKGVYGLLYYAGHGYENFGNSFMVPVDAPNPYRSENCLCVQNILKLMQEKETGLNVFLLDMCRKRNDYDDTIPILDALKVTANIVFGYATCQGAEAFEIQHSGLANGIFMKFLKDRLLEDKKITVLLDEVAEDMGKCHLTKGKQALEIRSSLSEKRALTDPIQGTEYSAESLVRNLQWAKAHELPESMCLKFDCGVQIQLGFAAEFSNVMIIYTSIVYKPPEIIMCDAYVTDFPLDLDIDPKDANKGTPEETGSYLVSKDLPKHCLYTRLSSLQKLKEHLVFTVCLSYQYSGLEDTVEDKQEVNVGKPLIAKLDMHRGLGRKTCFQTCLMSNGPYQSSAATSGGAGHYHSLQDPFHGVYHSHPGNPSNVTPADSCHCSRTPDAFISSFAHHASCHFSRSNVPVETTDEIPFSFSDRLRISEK
Procedure, shortened: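 Recombinant MALT1 preincubated with test compounds (10-point 1:3 dilutions in DMSO, duplicates) for 15 min at 25 °C in citrate-containing protease buffer with DTT, then AMC-labeled peptide added for 90 min at 25 °C. Inhibition normalized to no-compound (max) and no-enzyme (min) wells; IC50 from curve fit.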

[1] = test system: IL-2 secretion of Jurkat cells (PMA/Ionomycin inducing); assay: ELISA method to detect IL-2 secretion induced by PMA/Ionomycin; type: cell-based; settings: Homo sapiens, 20 h
Method: 12.5*10^3 Jurkat cells were seeded on a 96-well plate and incubated with various concentrations of compound solution for 30 min. Then, 500×PMA/Ionomycin stimulating factor was diluted with culture medium and added to the cell plate. […] The final concentrations of the compounds were 10000, 3333.3, 1111.1, 370.4, 123.5, 41.2, 13.7, 4.6, 1.5, 0 nM (The final concentration of DMSO is 0.5%). After incubation for 20 h, the supernatant was collected via centrifugation. The final IL-2 concentration was detected by ELISA method (IL-2 Duoset, R&D Systems, DY202). The signal value of each sample at a wavelength of 450 nm was collected by EnVision multifunctional microplate reader and converted to the IL-2 concentration via the ELISACalc.exe software. The IL-2 secretion inhibitory activity IC50 was fitted by GraphPad Prism software. The cell viability was tested simultaneously using the Cell-Titer Glo kit.
The compounds of the present invention show strong inhibitory effect on IL-2 secretion of Jurkat cells (PMA/Ionomycin inducing).

SMILES | IC50 (MALT1) [nM] | IC50 [1] [nM]
C#Cc1cnccc1-c1cc(Cl)c(C(=O)Nc2cnc(C(=O)NCC)c(Cl)c2)cc1F [Example A428, 3-chloro-5-(2-chloro-4-(3-ethynylpyridin-4-yl)-5-fluorobenzamido)-N-ethylpicolinamide] | ≤ 10 | 164
C#Cc1cncc(N)c1-c1cc(Cl)c(C(=O)Nc2cnc(C(=O)NCC(F)(F)F)c(Cl)c2)cc1F [Example A470, 5-(4-(3-amino-5-ethynylpyridin-4-yl)-2-chloro-5-fluorobenzamido)-3-chloro-N-(2,2,2-trifluoroethyl)picolinamide] | ≤ 10 | 113
Nc1cncc(C2CC2)c1-c1cc(Cl)c(C(=O)Nc2cnc(-n3nccn3)c(Cl)c2)cc1F [Example A506, 4-(3-amino-5-cyclopropylpyridin-4-yl)-2-chloro-N-(5-chloro-6-(2H-1,2,3-triazol-2-yl)pyridin-3-yl)-5-fluorobenzamide] | ≤ 10 | 76
